Assay type in all cases: cell-based
In assay [1] the test system is Klebsiella pneumonia multi-drug resistant (MDR) clinical isolates. Put plainly: Bacterial growth (O.D. readings) of Kp isolates treated with D-amino acid substituted AMPs. As to the method: (§1) Tables 3 and 4 provide the MIC data for the tested AMPs against a variety of infectious species. The following strains were tested: Enterococcus faecium MDR clinical isolates Ef 25153 and Ef 26125; methicillin-resistant Staphylococcus aureus (MRSA) clinical isolates USA300 and 150-10; Klebsiella pneumonia MDR clinical isolates C3, C5, A5, D7 and E6; and Pseudomonas aeruginosa MDR clinical isolates PA 82-8 and PA 129-5. […] Table 5 provides the data for the D-amino acid substituted AMPs and their bactericidal activities against various Klebsiella pneumonia multi-drug resistant (MDR) clinical isolates. All odd number Kp bacteria (isolated prior to colistin treatment; colistin sensitive) are paired with the corresponding even number Kp bacteria (isolated after colistin treatment; colistin resistant) from the same patient. O.D. readings represent the bacterial growth with a background reading of about 0.049+/−0.003.

Assay [2] deals with P. aeruginosa lipopolysaccharide (LPS)-induced secretion of tumor necrosis factor (TNF) in Raw (264.7) Cells. In words: Neutralization of LPS-induced TNF secretion. The settings on record: 1 μg/ml LPS. As to the method: Anti-inflammatory activity is based on the determination of cytokine stimulation of major inflammatory (e.g. TNF) or anti-inflammatory (e.g., IL-10) cytokines. For in vitro studies, TNF is measured using culture medium from LPS-stimulated macrophage cultures in the presence or absence of peptide treatment. For in vivo studies, cytokine levels in bronchoalveolar lavage (BAL) fluid were quantified using the mouse cytokine multiplex panel assay (Milliplex; Millipore, Billerica, Mass.). The expressions of cytokines were analyzed using the Luminex assay system, based on manufacturer's instructions and our previous publication. Standard recombinant protein solution was used to generate a standard curve for each analyzed protein. Absolute cytokine concentrations were calculated from the standard curve for each cytokine.
A high dosage (1 μg/ml) of LPS was used to stimulate the TNF secretion in raw cells.

The subject of assay [3] is Klebsiella pneumonia MDR clinical isolates. The settings on record: 18 h. As to the method:
(§2) The bactericidal activities were examined using standard bacterial culture media (MHB) without the inclusion of human blood.
as §1

Assay [4] deals with Pseudomonas aeruginosa MDR clinical isolates. Conditions: MDR clinical isolates, 18 h. As to the method:
as §2, §1

In assay [5] the test system is methicillin-resistant Staphylococcus aureus (MRSA) clinical isolates. The settings on record: methicillin-resistant clinical isolates, 18 h. As to the method:
as §2, §1

The test system of assay [6] is Enterococcus faecium MDR clinical isolates. Conditions: MDR clinical isolates, 18 h. As to the method: as §2, §1
The mark [7] stands for this setting: Kp strain 1 (colistin sensitive), background about 0.049.
The mark [8] stands for this setting: Kp strain 2 (colistin resistant), background about 0.049.
The mark [9] stands for this setting: Kp strain 3 (colistin sensitive).
Where [10] appears, read: Kp strain 4 (colistin resistant).
Where [11] appears, read: Kp strain 5 (colistin sensitive).
Setting [12] is: Kp strain 6 (colistin resistant).
Setting [13] is: Kp strain 7 (colistin sensitive).
The mark [14] stands for this setting: Kp strain 8 (colistin resistant).
[15] abbreviates: Kp strain 9 (colistin sensitive).
[16] abbreviates: Kp strain 10 (colistin resistant).
Setting [17] is: Kp strain 11 (colistin sensitive).
[18] abbreviates: Kp strain 12 (colistin resistant).
Setting [19] is: Kp strain 13 (colistin sensitive).
[20] abbreviates: Kp strain 14 (colistin resistant).
The mark [21] stands for this setting: Kp strain 15 (colistin sensitive).
[22] abbreviates: Kp strain 16 (colistin resistant).
The mark [23] stands for this setting: Kp strain 17 (colistin sensitive).
Setting [24] is: Kp strain 18 (colistin resistant).
Where [25] appears, read: Kp strain 19 (colistin sensitive).
Where [26] appears, read: Kp strain 20 (colistin resistant).
The mark [27] stands for this setting: Kp strain 21 (colistin sensitive).
Setting [28] is: Kp strain 22 (colistin resistant).
The mark [29] stands for this setting: Kp strain 23 (colistin sensitive).
[30] abbreviates: Kp strain 24 (colistin resistant).

Square brackets hold non-standard residues; d marks the D form. Ends that are not written are not given here. Peptide text beside a SMILES is read from it. Where only a bound is given, the exact number is not on record here.

Turning to `CC(C)[C@H](NC(=O)[C@H](Cc1c[nH]c2ccccc12)NC(=O)[C@H](CCCNC(=N)N)NC(=O)[C@@H](N)CCCNC(=N)N)C(=O)N[C@@H](CCCNC(=N)N)C(=O)N[C@@H](CCCNC(=N)N)C(=O)N[C@@H](C(=O)N[C@@H](CCCNC(=N)N)C(=O)N[C@@H](CCCNC(=N)N)C(=O)N[C@H](C(=O)N[C@@H](Cc1c[nH]c2ccccc12)C(=O)N[C@@H](CCCNC(=N)N)C(=O)N[C@@H](CCCNC(=N)N)C(=O)N[C@H](C(=O)N[C@@H](C(=O)N[C@@H](CCCNC(=N)N)C(=O)N[C@@H](C(=O)N[C@H](C(=O)N[C@@H](CCCNC(=N)N)C(=O)N[C@@H](CCCNC(=N)N)C(=O)N[C@@H](Cc1c[nH]c2ccccc12)C(=O)N[C@@H](C(=O)N[C@@H](CCCNC(=N)N)C(=O)N[C@@H](CCCNC(=N)N)C(=O)O)C(C)C)C(C)C)C(C)C)C(C)C)C(C)C)C(C)C)C(C)C` [SEQ ID No. 32] (H-RRWVRR[dV]RRVWRRV[dV]R[dV]VRRW[dV]RR-OH; N-terminus and C-terminus assumed), the O.D. reading is reported as 0.039 in assay [1] (setting [7]); 0.044 in assay [1] (setting [8]); 0.043 in assay [1] (setting [9]); 0.042 in assay [1] (setting [10]); 0.042 in assay [1] (setting [11]); 0.107 in assay [1] (setting [12]). Moreover, the O.D. reading in assay [1] (setting [13]) was 0.042; in assay [1] (setting [14]) it was 0.04; in assay [1] (setting [15]), 0.042; in assay [1] (setting [16]) it was 0.048; in assay [1] (setting [17]), 0.048; in assay [1] (setting [18]), 0.05. Further, the O.D. reading in assay [1] (setting [19]) was found to be 0.048; in assay [1] (setting [20]) it was 0.047; in assay [1] (setting [21]), 0.048; in assay [1] (setting [22]) it was 0.045; in assay [1] (setting [23]), 0.045; in assay [1] (setting [24]), 0.047. In addition, the O.D. reading is recorded as 0.048 in assay [1] (setting [25]); 0.049 in assay [1] (setting [26]); 0.051 in assay [1] (setting [27]); 0.048 in assay [1] (setting [28]); 0.048 in assay [1] (setting [29]); 0.11 in assay [1] (setting [30]).
For the molecule `CC(C)[C@H](NC(=O)[C@H](Cc1c[nH]c2ccccc12)NC(=O)[C@H](CCCNC(=N)N)NC(=O)[C@@H](N)CCCNC(=N)N)C(=O)N[C@@H](CCCNC(=N)N)C(=O)N[C@@H](CCCNC(=N)N)C(=O)N[C@@H](C(=O)N[C@@H](CCCNC(=N)N)C(=O)N[C@@H](CCCNC(=N)N)C(=O)N[C@@H](C(=O)N[C@@H](Cc1c[nH]c2ccccc12)C(=O)N[C@@H](CCCNC(=N)N)C(=O)N[C@@H](CCCNC(=N)N)C(=O)N[C@H](C(=O)N[C@@H](C(=O)N[C@@H](CCCNC(=N)N)C(=O)N[C@@H](C(=O)N[C@@H](C(=O)N[C@@H](CCCNC(=N)N)C(=O)N[C@@H](CCCNC(=N)N)C(=O)N[C@@H](Cc1c[nH]c2ccccc12)C(=O)N[C@@H](C(=O)N[C@@H](CCCNC(=N)N)C(=O)N[C@@H](CCCNC(=N)N)C(=O)O)C(C)C)C(C)C)C(C)C)C(C)C)C(C)C)C(C)C)C(C)C` [SEQ ID No. 33] (H-RRWVRR[dV]RR[dV]WRRV[dV]R[dV][dV]RRW[dV]RR-OH; N-terminus and C-terminus assumed), the O.D. reading turned out to be 0.104 in assay [1] (setting [7]); 0.108 in assay [1] (setting [8]); 0.048 in assay [1] (setting [9]); 0.047 in assay [1] (setting [10]); 0.053 in assay [1] (setting [11]); 0.12 in assay [1] (setting [12]). Moreover, the O.D. reading in assay [1] (setting [13]) was 0.046; in assay [1] (setting [14]), 0.056; in assay [1] (setting [15]), 0.043; in assay [1] (setting [16]) it was 0.131; in assay [1] (setting [17]), 0.057; in assay [1] (setting [18]), 0.066. Besides, the O.D. reading is given as 0.05 in assay [1] (setting [19]); 0.089 in assay [1] (setting [20]); 0.048 in assay [1] (setting [21]); 0.054 in assay [1] (setting [22]); 0.044 in assay [1] (setting [23]); 0.048 in assay [1] (setting [24]). In addition, the O.D. reading in assay [1] (setting [25]) stood at 0.049; in assay [1] (setting [26]) it was 0.05; in assay [1] (setting [27]), 0.048; in assay [1] (setting [28]), 0.05; in assay [1] (setting [29]) it was 0.047; in assay [1] (setting [30]), 0.076.
“GVKKKWKKKLGLKLWLKISGVVLG [SEQ ID No. 24, reference compound]”: in assay [2], the “neutralizing LPS-induced TNF secretion” value is “Display Neutralizing Activities”. Further, in assay [3], the “MIC A5” value was 32 µM and the “MIC C3” value was found to be 32 µM. In assay [4], the “MIC PA 82-8” value was greater than 32 µM and the “MIC PA 129-5” value is less than 16 µM. Besides, in assay [5], the “MIC MRSA 150-10” value is greater than 32 µM and the “MIC MRSA USA300” value is greater than 32 µM. Besides, in assay [6], the “MIC Ef 25153” value is greater than 32 µM and the “MIC Ef 26125” value came out at 16 µM.
In the case of “ILKPGGGTSGGLLGGLLGKVTSVIPGLNNI [SEQ ID No. 1, reference compound]”, the “neutralizing LPS-induced TNF secretion” value in assay [2] is on record as “display neutralizing activities”. Besides, in assay [3], the “MIC A5” value was greater than 32 µM, the “MIC C3” value is greater than 32 µM, the “MIC C5” value is greater than 32 µM and the “MIC D7” value was greater than 32 µM. Further, the “MIC E6” value in assay [3] was greater than 32 µM. Besides, in assay [4], the “MIC PA 82-8” value is greater than 32 µM and the “MIC PA 129-5” value was greater than 32 µM. Moreover, in assay [5], the “MIC MRSA 150-10” value was greater than 32 µM and the “MIC MRSA USA300” value is greater than 32 µM. Also, in assay [6], the “MIC Ef 25153” value is greater than 32 µM and the “MIC Ef 26125” value was greater than 32 µM.
For the molecule “LKKWWKKVKGLLGGLLGKVKKVIK [SEQ ID No. 17]”, in assay [3], the “MIC A5” value was greater than 4 µM, the “MIC C3” value was less than 2 µM, the “MIC C5” value stood at 4 µM and the “MIC D7” value is less than 2 µM. Moreover, the “MIC E6” value in assay [3] was less than 2 µM. Besides, in assay [4], the “MIC PA82 82-8” value was determined as 4 µM and the “MIC PA 129-5” value was less than 2 µM. Further, in assay [5], the “MIC MRSA 150-10” value is less than 2 µM and the “MIC MRSA USA300” value was less than 2 µM. In addition, in assay [6], the “MIC Ef 25153” value is less than 2 µM and the “MIC Ef 26125” value was less than 2 µM.
For “LKKWWKKVKGLLGGLLGKVKSVIK [SEQ ID No. 16]”, in assay [3], the “MIC A5” value is greater than 4 µM, the “MIC C3” value is less than 2 µM, the “MIC C5” value worked out at 4 µM and the “MIC D7” value was less than 2 µM. Further, the “MIC E6” value in assay [3] was less than 2 µM. Moreover, in assay [4], the “MIC PA82 82-8” value is 4 µM and the “MIC PA 129-5” value was 4 µM. In assay [5], the “MIC MRSA 150-10” value came to 4 µM and the “MIC MRSA USA300” value was less than 2 µM. Also, in assay [6], the “MIC Ef 25153” value was less than 2 µM and the “MIC Ef 26125” value is less than 2 µM.
Consider “LKKWWKTSKGLLGGLLGKVTSVIK [SEQ ID No. 13]”, for which the “neutralizing LPS-induced TNF secretion” value in assay [2] is listed as “Display Neutralizing Activities”. In addition, in assay [3], the “MIC A5” value is greater than 16 µM, the “MIC C3” value was greater than 16 µM, the “MIC C5” value was determined as 16 µM and the “MIC D7” value is less than 8 µM. For the same molecule, the “MIC E6” value in assay [3] was less than 8 µM. Also, in assay [4], the “MIC PA82 82-8” value worked out at 16 µM and the “MIC PA 129-5” value is less than 16 µM. For the same molecule, in assay [5], the “MIC MRSA USA300” value was less than 8 µM. For the same molecule, in assay [6], the “MIC Ef 25153” value was less than 16 µM and the “MIC Ef 26125” value was less than 8 µM.
For the molecule “LLGDFFRKSKEKIGKEFKRIVQRIKDFLRNLLPRTES [SEQ ID No. 25, reference compound]”, the “neutralizing LPS-induced TNF secretion” value in assay [2] is given as “Do Not Neutralize”. Moreover, in assay [3], the “MIC A5” value was greater than 32 µM, the “MIC C3” value is 32 µM, the “MIC C5” value is greater than 32 µM and the “MIC D7” value was less than 16 µM. The “MIC E6” value in assay [3] was less than 16 µM. In assay [4], the “MIC PA 82-8” value was determined as 32 µM and the “MIC PA 129-5” value came to 16 µM. Moreover, in assay [5], the “MIC MRSA 150-10” value worked out at 32 µM and the “MIC MRSA USA300” value was greater than 32 µM. Further, in assay [6], the “MIC Ef 25153” value is less than 16 µM and the “MIC Ef 26125” value was less than 16 µM.
